Where “and” joins values, the source holds several entries; their conditions need not be identical. Identical values can stand only once.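 Cultured in 96-well plates, cells were exposed to test compound for 48 hours across five concentrations. At the GI50, growth is halved. Definition used: TGI = concentration required for complete inhibition of growth.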
Key:
Assay in all cases: growth of human tumour cells (NCI), 48 h
[1] = test system: A549 NSCLC
[2] = test system: IGROV1 ovarian
[3] = test system: KM12 colon
[4] = test system: NCI-H522 lung
[5] = test system: OVCAR-8 ovarian
[6] = test system: RPMI-8226 leukemia
[7] = test system: RXF 393 renal
[8] = test system: SF-539 CNS
[9] = test system: SK-MEL-28 melanoma
[10] = test system: SK-OV-3 ovarian

Structure (SMILES)	TGI [1]	TGI [2]	TGI [3]	TGI [4]	TGI [5]	TGI [6]	TGI [7]	TGI [8]	TGI [9]	TGI [10]	GI50 [1]	GI50 [2]	GI50 [3]	GI50 [4]	GI50 [5]	GI50 [6]	GI50 [7]	GI50 [8]	GI50 [9]	GI50 [10]
C[Si](C)(C)[C@@]1([Se]c2ccccc2)CC[C@@H]1C(=O)c1ccccc1	> 100 µM	> 100 µM	> 100 µM	58.1 µM	> 100 µM	53 µM	> 100 µM	> 100 µM	> 100 µM	> 100 µM	–	–	–	–	–	–	–	–	–	–
COc1cc(C(N)=O)c(OC)c(OC)c1OC	> 100 µM	> 100 µM	> 100 µM	> 100 µM	> 100 µM	> 100 µM	> 100 µM	> 100 µM	> 100 µM	> 100 µM	–	–	–	–	–	–	–	–	–	–
OCC1CC2CC1C1(C2)OCCO1 (stereo not drawn)	> 100 µM	> 100 µM	> 100 µM	> 100 µM	> 100 µM	> 100 µM	> 100 µM	> 100 µM	> 100 µM	> 100 µM	–	–	–	–	–	–	–	–	–	–
O=C(N/N=C\c1cc(Cl)ccc1O)N/N=C/c1cc(Cl)ccc1O	> 100 µM	> 100 µM	> 100 µM	19 µM	> 100 µM	> 100 µM	> 100 µM	> 100 µM	> 100 µM	> 100 µM	0.521 µM	1.56 µM	13.1 µM	0.616 µM	1.77 µM	2.79 µM	> 100 µM	2.32 µM	> 100 µM	> 100 µM
N#CC(/C(=N\NC(N)=S)C(=O)NC1C2CC3CC(C2)CC1C3)c1ccc(Cl)cc1 (stereo not drawn)	> 100 µM	> 100 µM	> 100 µM	> 100 µM	> 100 µM	> 100 µM	> 100 µM	> 100 µM	> 100 µM	> 100 µM	–	–	–	–	–	–	–	–	–	–
CCNC1=CC(=O)c2ncccc2C1=O	3.38 µM	24.5 µM	15.1 µM	4.23 µM	14.2 µM	29.6 µM	17.9 µM	3.76 µM	3.52 µM	19.8 µM	1.2 µM	7.91 µM	3.25 µM	1.79 µM	3.04 µM	7.08 µM	5.65 µM	1.89 µM	1.71 µM	6.92 µM
CC1=CC(=O)c2[nH]c3ccccc3c2C1=O	> 25 µM	17.1 µM	9.01 µM	7.24 µM	7.45 µM	14.7 µM	6.74 µM	7.79 µM	7.98 µM	> 25 µM	–	6.63 µM	4.4 µM	3.82 µM	–	–	3.47 µM	4.28 µM	4.47 µM	21.1 µM
O=C1CCCc2c(O)ccc(O)c21	> 100 µM	> 100 µM	> 100 µM	25.7 µM	> 100 µM	> 100 µM	> 100 µM	> 100 µM	> 100 µM	> 100 µM	–	–	–	–	–	–	–	–	–	–
Nc1nc(Cl)cc(NCCCCCCCCCCNc2cc(Cl)nc(N)n2)n1	> 100 µM	> 100 µM	> 100 µM	11.5 µM	63 µM	91.4 µM	> 100 µM	> 100 µM	–	> 100 µM	–	–	–	–	–	–	–	–	–	–
Nc1ccccc1C#Cc1ccccc1C#CCCCCO	45 µM	46.7 µM	48.4 µM	31.2 µM	49.4 µM	72.2 µM	26.1 µM	42.8 µM	49.7 µM	> 100 µM	18 µM	17.5 µM	16.9 µM	14.3 µM	20.3 µM	29.8 µM	5.73 µM	19 µM	28.4 µM	> 100 µM
COCCOC(=O)CCn1cc(F)c(=O)[nH]c1=O	> 150 µg/mL	> 150 µg/mL	> 150 µg/mL	> 150 µg/mL	> 150 µg/mL	> 150 µg/mL	> 150 µg/mL	> 150 µg/mL	> 150 µg/mL	> 150 µg/mL	1.79 µg/mL	7.36 µg/mL	5.93 µg/mL	131 µg/mL	32 µg/mL	13.8 µg/mL	13.8 µg/mL	7.42 µg/mL	31.7 µg/mL	37.1 µg/mL
O=C(O)c1c(Cl)c(Cl)c(Cl)c(Cl)c1-c1c2cc(I)c(=O)c(I)c-2oc2c(I)c(O)c(I)cc12	> 200 µM	83.8 µM	182 µM	59.9 µM and 83.2 µM	115 µM	> 200 µM	45.4 µM	89.7 µM	73 µM	78.6 µM	177 µM	88.2 µM and 34.9 µM	53.6 µM	26.6 µM and 39.4 µM	58.2 µM and 47.4 µM	122 µM	27.5 µM and 15 µM	32.7 µM and 34.6 µM	55.9 µM and 32.9 µM	32.4 µM
Fc1cc(Nc2ccc3c(OCCCN4CCOCC4)cccc3n2)ccc1Cl	8.47 µM	9.32 µM	5.46 µM	3.35 µM	15.3 µM	6.97 µM	4.74 µM	4.01 µM	3.56 µM	4.72 µM	2.96 µM	3.19 µM	2.3 µM	1.72 µM	4.03 µM	2.64 µM	2.16 µM	1.95 µM	1.82 µM	2.24 µM
NC(=NC1C2CC3CC(C2)CC1C3)Nc1ccc(I)cc1 (stereo not drawn)	14.2 µM	13.5 µM	–	11.2 µM	23.4 µM	5.72 µM	13.5 µM	15.5 µM	7.58 µM	23.3 µM	3.44 µM	3.2 µM	–	2.63 µM	6.61 µM	2.49 µM	3.1 µM	4.16 µM	2.53 µM	8.68 µM
O=C(O)C1C2CC3CC2CC31 (stereo not drawn)	> 100 µM	> 100 µM	> 100 µM	> 100 µM	> 100 µM	> 100 µM	> 100 µM	> 100 µM	> 100 µM	> 100 µM	–	–	–	–	–	–	–	–	–	–
CN(C)/C(=N/C(=O)Nc1ccccc1)SCc1ccccc1	> 100 µM	> 100 µM	> 100 µM	> 100 µM	> 100 µM	> 100 µM	> 100 µM	> 100 µM	> 100 µM	> 100 µM	–	–	–	–	–	–	–	–	–	–

Structure (SMILES)	TGI [1]	TGI [2]	TGI [3]	TGI [4]	TGI [5]	TGI [6]	TGI [7]	TGI [8]	TGI [9]	TGI [10]	GI50 [1]	GI50 [2]	GI50 [3]	GI50 [4]	GI50 [5]	GI50 [6]	GI50 [7]	GI50 [8]	GI50 [9]	GI50 [10]
COc1cc(Nc2ncc(-c3ccccc3)o2)cc(OC)c1OC	> 25 µM	> 25 µM	> 25 µM	> 25 µM	> 25 µM	> 25 µM	17.4 µM	> 25 µM	> 25 µM	> 25 µM	1.66 µM	1.28 µM	0.152 µM	0.925 µM	8.3 µM	16.3 µM	0.77 µM	1.53 µM	4.38 µM	2.89 µM
COc1ccc(C2CC(C)=Nc3c([nH]c(=S)[nH]c3=O)N2)cc1 (stereo not drawn)	40.4 µM	34.5 µM	32 µM	30.1 µM	35.7 µM	50.3 µM	34.7 µM	50.8 µM	60.5 µM	38.2 µM	–	–	–	–	–	–	–	–	–	–
CC(Cl)CC(=O)Nc1ccc2c(c1)oc(=O)c1cc(NC(=O)CC(C)Cl)ccc12 (stereo not drawn)	22.2 µM	23.1 µM	24.4 µM	36.8 µM	28.8 µM	23.4 µM	22 µM	33.1 µM	34.2 µM	76.7 µM	8 µM	1.73 µM	7.44 µM	15.2 µM	10.4 µM	1.46 µM	0.762 µM	14.4 µM	16.4 µM	15.6 µM
CCOc1ccc(N2C(N)=NC(N)=NC2(C)C)cc1	> 100 µM	> 100 µM	> 100 µM	> 100 µM	> 100 µM	> 100 µM	> 100 µM	> 100 µM	> 100 µM	> 100 µM	50.1 µM	46.5 µM	74 µM	> 100 µM	62.3 µM	> 100 µM	> 100 µM	28.6 µM	53.7 µM	> 100 µM
O=C1CCCC2COc3ccc(O)c1c32 (stereo not drawn)	> 100 µM	> 100 µM	> 100 µM	> 100 µM	> 100 µM	> 100 µM	> 100 µM	> 100 µM	> 100 µM	> 100 µM	–	–	–	–	–	–	–	–	–	–
C[C@H]1CC(=O)[C@@]2(O)C#C/C=C\C#C[C@@H]3Nc4c(cc(O)c5c4C(=O)c4ccccc4C5=O)[C@]24O[C@]314	0.82 µM	0.452 µM and 0.7 µM	0.226 µM and 0.48 µM	0.293 µM and 0.384 µM	0.124 µM and 0.258 µM	0.249 µM and 0.154 µM	0.0684 µM and 0.242 µM	0.0219 µM and 0.0281 µM	0.241 µM and 0.729 µM	0.0954 µM	–	0.0025 µM	0.128 µM	0.032 µM	0.00468 µM	0.00313 µM	0.0373 µM	< 0.001 µM	0.0409 µM	–
CC(C)S(=O)(=O)n1c(N)nc2ccc(/C(=N/O)c3ccccc3)cc21	49.3 µM	48 µM	45.8 µM	35.2 µM	> 100 µM	31.8 µM	45.5 µM	49.6 µM	> 100 µM	83 µM	–	–	–	–	–	–	–	–	–	–
O=C(/C=C/c1cccs1)Nc1ncc(Cc2ccccc2F)s1	> 100 µM	> 100 µM	> 100 µM	–	> 100 µM	> 100 µM	0.508 µM	0.649 µM	> 100 µM	> 100 µM	0.48 µM	0.541 µM	0.205 µM	0.194 µM	0.508 µM	0.33 µM	0.192 µM	0.219 µM	0.886 µM	0.477 µM
C=C1C(=O)O[C@H]2[C@H](OC(C)=O)[C@@H](C)CCC/C(C)=C/CC[C@]3(CO3)[C@H](O)C[C@@H]12	35 µM	12.8 µM	8.96 µM	20.2 µM	10.8 µM	5.49 µM	11.7 µM	9.27 µM	4.8 µM	21.7 µM	16.9 µM	3.37 µM	2.33 µM	6.22 µM	3.06 µM	1.84 µM	3.16 µM	3.2 µM	2.21 µM	9.12 µM
CCn1c(-c2cc3ccccc3cc2OC(=O)c2ccccc2)n[nH]c1=S	> 50 µM	8.54 µM	> 50 µM	45.4 µM	–	23.8 µM	> 50 µM	> 50 µM	> 50 µM	> 50 µM	> 50 µM	1.51 µM	42.3 µM	11 µM	–	9.96 µM	> 50 µM	> 50 µM	> 50 µM	> 50 µM
CCn1cc(C2NC(=O)c3cc(F)ccc3N2)c2cccc(Cl)c21 (stereo not drawn)	> 100 µM	> 100 µM	> 100 µM	> 32.1 µM	> 100 µM	> 100 µM	0.674 µM	0.683 µM	> 100 µM	> 100 µM	0.364 µM	0.388 µM	0.277 µM	0.135 µM	0.408 µM	0.359 µM	0.149 µM	0.177 µM	0.847 µM	0.706 µM
ClCc1ccc(Cn2cnc3ncnc(Cl)c32)cc1	4.13 µM	31.1 µM	3.48 µM	> 100 µM	11 µM	2.67 µM	4.14 µM	3.74 µM	–	23.3 µM	1.81 µM	7.61 µM	1.66 µM	4.3 µM	3.14 µM	1.28 µM	1.67 µM	2.08 µM	–	11.3 µM
Clc1cccc(C2SCc3nc4ccccc4n32)c1Cl (stereo not drawn)	41.9 µM	33.6 µM	–	32.1 µM	37 µM	90.6 µM	29.6 µM	32.5 µM	35.9 µM	34.9 µM	–	–	–	–	–	–	–	–	–	–
C[P+](C)(CC(F)(F)F)c1ccccc1	> 100 µM	> 100 µM	> 100 µM	> 100 µM	> 100 µM	> 100 µM	> 100 µM	> 100 µM	–	> 100 µM	–	–	–	–	–	–	–	–	–	–
Cc1cc(Br)cc(C)c1NC(=O)C(=O)C(C(=O)c1ccc(Cl)c(Cl)c1)C1OC(=O)c2ccccc21 (stereo not drawn)	> 100 µM	> 100 µM	> 100 µM	> 100 µM	> 100 µM	> 100 µM	> 100 µM	> 100 µM	–	> 100 µM	–	–	–	–	–	–	–	–	–	–
Cc1[nH]nc(C(=O)N/N=C/c2cccs2)c1N=NN(C)C	52.7 µM	31.1 µM	> 100 µM	29.5 µM	33.1 µM	89.7 µM	36 µM	36.5 µM	–	43.7 µM	–	–	–	–	–	–	–	–	–	–

Source: PubChem BioAssay (NCI)
